Usually ED50 stands for the dose that gives a 50% effect, or the effect in half of the subjects.

In this experiment the test system is leukotriene D4 induced bronchoconstriction. Kind of experiment: inhibition of leukotriene D4 induced bronchoconstriction in anaesthetized guinea pigs (modified Konzett-Rossler). It is filed as in vivo, guinea pig. Set-up: % Inhibition After 30 Min.: concentration or dose not given beside the values. To be noted: for ED50: Cavia porcellus, 10 min, directly into the duodenum, dose producing 50% inhibition when given 10 minutes before LTD4, read-out: ED50 (median effective dose), inhibition of LTD4 induced bronchoconstriction; for % Inhibition After 30 Min.: inhibition of LTD4 induced bronchoconstriction, intraduodenal, 30 min after antagonist administration. The procedure: The antagonist activity of the compounds of the present invention was determined by measuring their ability to inhibit leukotriene D4 induced bronchoconstriction in anaesthetized guinea pigs (modified Konzett-Rossler). When administrated directly into the duodenum (oral activity) they are active at 2.5-5 mg/kg. Oral activity is defined as the dose producing 50% inhibition when given 10 minutes before LTD4. Percent inhibition was determined at 10 minutes and also at 30 and 50 minutes after antagonist administration. The time interval between LTD4 administration was kept constant at 20 minutes in all experiments.
Table I is a comparison between three known leukotriene antagonists (entries 1, 2 and 3, see: G.B. Pat. No. 2,058,785, supra) and several compounds of the present invention (4-9).

Regarding `CCCc1c(OCCCOc2ccc(C(=O)O)cc2)ccc(C(C)=O)c1O` [Entry 1, reference compound], the ED50 was 10 mg/kg and the “% Inhibition After 30 Min.” value was 59%.

Regarding `CCCc1c(OCCCOc2cccc(CCC(=O)O)c2)ccc(C(C)=O)c1O` [Entry 2, reference compound], the ED50 turned out to be 10 mg/kg and the “% Inhibition After 30 Min.” value is recorded as 32%.

For the compound `CCCc1c(OCCCOc2ccc(C=CC(=O)O)cc2)ccc(C(C)=O)c1O` [Entry 3, reference compound], the 50% effective dose (ED50) stood at 20 mg/kg and the “% Inhibition After 30 Min.” value is reported as 56%.

With `CCCc1c(OCCCOc2ccc(CC(=O)O)cc2F)ccc(C(C)=O)c1O` [Entry 4, 4-(3-(4-Acetyl-3-hydroxy-2-propylphenoxy)-propoxy)-3-fluorobenzene acetic acid], the ED50 worked out at 10 mg/kg and the “% Inhibition After 30 Min.” value is 100%.

`CCCc1c(OCC(O)COc2ccc(CC(=O)O)cc2F)ccc(C(C)=O)c1O` (stereo not drawn) [Entry 5, 4-(3-(4-Acetyl-3-hydroxy-2-propylphenoxy)-2-hydroxypropoxy)-3-fluorobenzeneacetic acid]: the ED50 is 2.5 mg/kg and the “% Inhibition After 30 Min.” value is recorded as 50%.

Take `CCCc1c(OCC(O)COc2ccc(CC(=O)O)cc2Br)ccc(C(C)=O)c1O` (stereo not drawn) [Entry 6, 4-(3-(4-Acetyl-3-hydroxy-2-propylphenoxy)-2-hydroxypropoxy)-3-bromobenzene acetic acid]: the ED50 was determined as 2.5 mg/kg and the “% Inhibition After 30 Min.” value is listed as 35%.

In the case of `CCCc1c(OCC(O)COc2ccc(CC(=O)O)cc2Cl)ccc(C(C)=O)c1O` (stereo not drawn) [Entry 7, 4-(3-(4-Acetyl-3-hydroxy-2-propylphenoxy)-2-hydroxypropoxy)-3-chlorobenzeneacetic acid], the ED50 stood at 10 mg/kg and the “% Inhibition After 30 Min.” value was 63%.

As for `CCCc1c(OCCCOc2ccc(CC(=O)O)cc2Cl)ccc(C(C)=O)c1O` [Entry 8, 4-(3-(4-acetyl-3-hydroxy-2-propylphenoxy)propoxy)-3-chlorobenzene acetic], the ED50 came out at 5 mg/kg and the “% Inhibition After 30 Min.” value came out at 60%.

As to `CCCc1c(OCCCOc2ccc(CC(=O)O)cc2Br)ccc(C(C)=O)c1O` [Entry 9, 4-(3-(4-Acetyl-3-hydroxy-2-propylphenoxy)-propoxy)-3-bromobenzene acetic acid], the ED50 stood at 10 mg/kg and the “% Inhibition After 30 Min.” value was found to be 87%.

These data come from patent US4820867A, “Phenoxypropoxy halophenylacetic acids as leukotriene antagonists” (Merck Frosst Canada, Inc., priority 1986, dated 1989).
